Patent US20210309657A1, “TRICYCLIC COMPOUNDS FOR THE TREATMENT AND PROPHYLAXIS OF BACTERIAL INFECTION” (Hoffmann-La Roche Inc., priority 2018, published 2021)
Converted amounts (≈) assume the structure as drawn.

Columns and labels:
[1] = tested on: K. pneumoniae (ATCC10031); assay: 50% growth inhibitory concentration (IC50) determination assay, K. pneumoniae; assay type: cell-based; settings: Klebsiella pneumoniae, growth inhibition, Iso-Sensitest broth, OD 600 nm over 16h, <0.098 = the detection limit
[2] = Lyophilisation solubility assay (LYSA); assay type: physicochemical; settings: aqueous buffer, thermodynamic from solid; 0.05 M phosphate buffer, pH 6.5; HPLC-UV; <1.0 = the detection limit; read-out: Lysa
[3] = tested on: A. baumannii (ATCC17978); assay: 50% growth inhibitory concentration (IC50) determination assay, A. baumannii; assay type: cell-based; settings: Acinetobacter baumannii, growth inhibition, Iso-Sensitest broth, OD 600 nm over 16h, <0.098 = the detection limit
[4] = tested on: S. aureus (ATCC29213); assay: 50% growth inhibitory concentration (IC50) determination assay, S. aureus; assay type: cell-based; settings: Staphylococcus aureus, growth inhibition, Iso-Sensitest broth, OD 600 nm over 16h, <0.098 = the detection limit

SMILES	IC50 [1] [nM]	solubility thermodynamic [2] [µg/mL]	IC50 [3] [nM]	IC50 [4] [nM]
CCNc1cc(Cl)cc2c1[nH]c1ncc(-c3cncc(C#N)c3)c(N3CC[C@@H](N)C3)c12 [Example 1.05, 5-[4-[(3R)-3-Aminopyrrolidin-1-yl]-6-chloro-8-(ethylamino)-9H-pyrido[2,3-b]indol-3-yl]pyridine-3-carbonitrile]	< 98	28 (≈ 64.8 µM)	< 98	1790
CNc1cc(F)c(F)c2c1[nH]c1ncc(-c3cnc(OC)nc3)c(N3CC4CC4(CN)C3)c12 (stereo not drawn) [Example 1.27, 4-[1-(Aminomethyl)-3-azabicyclo[3.1.0]hexan-3-yl]-5,6-difluoro-3-(2-methoxypyrimidin-5-yl)-N-methyl-9H-pyrido[2,3-b]indol-8-amine]	< 98	74 (≈ 164 µM)	340	522
CNc1cc(F)c(F)c2c1[nH]c1ncc(-c3cnc(OC)nc3)c(N3CCC(F)(CN)C3)c12 (stereo not drawn) [Example 1.28, 4-[3-(aminomethyl)-3-fluoro-pyrrolidin-1-yl]-5,6-difluoro-3-(2-methoxypyrimidin-5-yl)-N-methyl-9H-pyrido[2,3-b]indol-8-amine]	< 98	88 (≈ 192 µM)	115	227
